# Laboratory results as given in patent publication EP1247803A2, “Indolinone compounds suitable for modulation of protein kinases” (Sugen, Inc., priority 1996, dated 1998).
# Target: T1, FLK-1 receptor (Mus musculus, UniProt P35918)
# T1 construct: expressed in transfected cells; host or cells: NIH3T3 C7#3
# Assay: FLK-1 ELISA (kinase activity of the FLK-1 receptor in FLK-1/NIH3T3 cells, VEGF stimulated)
# Format: cell-based
# Set-up: concentration or dose not given beside the values
# Summary of the method: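 An ELISA using affinity-purified rabbit anti-FLK-1 antiserum on anti-rabbit IgG-coated plates measured VEGF-stimulated FLK-1 kinase activity. NIH3T3 C7#3 cells carrying FLK-1 were serum-starved (0.1% FBS) overnight, then exposed to compound (final 1:200 dilution, 0.5% DMSO) for two hours at 37 °C.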
# T1 sequence (P35918 20-1345): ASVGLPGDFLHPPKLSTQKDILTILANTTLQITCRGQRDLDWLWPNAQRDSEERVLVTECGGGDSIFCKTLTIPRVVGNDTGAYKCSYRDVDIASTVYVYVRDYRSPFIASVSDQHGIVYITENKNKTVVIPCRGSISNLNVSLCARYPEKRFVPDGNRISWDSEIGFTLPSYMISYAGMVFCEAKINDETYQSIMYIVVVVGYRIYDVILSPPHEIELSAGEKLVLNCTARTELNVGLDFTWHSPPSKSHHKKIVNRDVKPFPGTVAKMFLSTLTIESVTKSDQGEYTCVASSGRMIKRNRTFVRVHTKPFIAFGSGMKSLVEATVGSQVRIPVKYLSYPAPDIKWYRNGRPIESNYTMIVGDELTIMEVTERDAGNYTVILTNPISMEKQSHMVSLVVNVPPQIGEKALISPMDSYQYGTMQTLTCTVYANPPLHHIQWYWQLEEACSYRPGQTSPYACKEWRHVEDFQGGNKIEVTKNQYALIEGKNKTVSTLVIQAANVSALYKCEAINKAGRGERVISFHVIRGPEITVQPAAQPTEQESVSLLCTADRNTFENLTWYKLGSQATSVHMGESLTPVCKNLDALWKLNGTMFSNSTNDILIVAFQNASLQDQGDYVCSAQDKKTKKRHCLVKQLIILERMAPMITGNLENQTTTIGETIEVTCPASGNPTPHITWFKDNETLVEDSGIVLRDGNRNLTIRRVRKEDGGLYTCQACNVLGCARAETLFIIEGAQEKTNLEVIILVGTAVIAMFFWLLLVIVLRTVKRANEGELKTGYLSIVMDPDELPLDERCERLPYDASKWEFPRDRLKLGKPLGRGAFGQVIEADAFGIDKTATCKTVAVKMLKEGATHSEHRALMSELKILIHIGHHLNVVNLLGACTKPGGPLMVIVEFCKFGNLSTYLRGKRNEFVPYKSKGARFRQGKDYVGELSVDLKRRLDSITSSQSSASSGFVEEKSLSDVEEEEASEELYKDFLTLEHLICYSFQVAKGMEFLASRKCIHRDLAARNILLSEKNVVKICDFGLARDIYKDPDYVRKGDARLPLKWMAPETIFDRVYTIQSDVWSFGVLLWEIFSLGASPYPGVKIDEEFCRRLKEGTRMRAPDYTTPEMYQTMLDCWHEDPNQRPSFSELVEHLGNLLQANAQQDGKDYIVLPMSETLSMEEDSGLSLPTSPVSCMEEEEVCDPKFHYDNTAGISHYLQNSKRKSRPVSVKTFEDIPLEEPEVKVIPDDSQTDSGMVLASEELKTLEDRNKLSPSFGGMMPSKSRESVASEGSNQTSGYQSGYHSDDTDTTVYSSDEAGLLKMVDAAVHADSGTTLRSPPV
row,Structure (SMILES),Fik Kinase %Inhibition [%]
1,Cc1c(Br)cc(Br)c2c1C(=Cc1c[nH]cn1)C(=O)N2 [10725/A11],-21.9
2,O=C1Nc2ccc(I)cc2C1=Cc1sccc1Br [10725/B02],-2.8
3,COc1ccc(Br)c(C=C2C(=O)Nc3ccc(I)cc32)c1O [10725/B03],4.9
4,Cc1cc(C=C2C(=O)Nc3ccc(I)cc32)[nH]n1 [10725/B05],-61.0
5,COc1cc(C)cc(O)c1C=C1C(=O)Nc2ccc(I)cc21 [10725/B06],-0.5
6,O=CN1CCN(c2ccc(C=C3C(=O)Nc4ccc(I)cc43)cc2)CC1 [10725/B07],24.6
7,O=C1Nc2ccc(I)cc2C1=Cc1ccc(N2CCOCC2)cc1 [10725/B08],-24.1
8,COC(=O)Cc1c(Cl)[nH]c(C=C2C(=O)Nc3ccc(I)cc32)c1C(=O)OC [10725/B09],0.4
9,O=C1Nc2ccc(I)cc2C1=Cc1c(Br)cnn1-c1ccc(Cl)cc1 [10725/B10],5.1
10,O=C1Nc2ccc(I)cc2C1=Cc1c[nH]cn1 [10725/B11],-42.3
